Patent US7138361B2, “Herbicidal heterocycles” (E. I. du Pont de Nemours and Company, priority 2000, dated 2006)

What was measured:
Type in all cases: in vivo
[1] = tested on: duck salad (Heteranthera limosa); test: Test C flooded paddy test; settings: for Ducksalad plant response rating: Flooded Paddy, scale 0 to 100, 0 no effect, 100 complete control; for Plant response rating, Ducksalad: flooded paddy test, scale 0 to 100 (0 no effect, 100 complete control)
How it was run: (§1)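 Plants were grown to the 2-leaf stage under flooded paddy conditions and treated. They were then kept in a greenhouse for 12 to 14 days and visually rated against untreated controls on a 0–100 scale, where 0 is no effect and 100 is complete control.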

[2] = tested on: barnyardgrass (Echinochloa crus-galli); test: Test C flooded paddy test; settings: for Barnyardgrass plant response rating: Flooded Paddy, scale 0 to 100, 0 no effect, 100 complete control; for Plant response rating, Barnyardgrass: flooded paddy test, scale 0 to 100 (0 no effect, 100 complete control)
How it was run: as §1

[3] = tested on: smallflower flatsedge (Cyperus difformis); test: Test C flooded paddy test; settings: for Flatsedge plant response rating: Flooded Paddy, scale 0 to 100, 0 no effect, 100 complete control; for Plant response rating, Flatsedge: flooded paddy test, scale 0 to 100 (0 no effect, 100 complete control)
How it was run: as §1

[4] = tested on: pigweed (Amaranthus retroflexus); test: Test C preemergence; settings: for Plant response rating, Pigweed: scale 0 to 100, 0 no effect, 100 complete control
How it was run: (§2)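 Preemergence: seeds sown then treated. Postemergence: plants 2–18 cm, 1- to 4-leaf. Both with surfactant-containing solvent formulation; visual injury scored 0–100 after 12–14 d.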

[5] = tested on: cocklebur (Xanthium strumarium); test: Test C preemergence; settings: for Plant response rating, Cocklebur: scale 0 to 100, 0 no effect, 100 complete control; for Plant response rating (0 to 100), Cocklebur: preemergence, visual evaluation after 12 to 14 days
How it was run: as §2

[6] = tested on: bermudagrass (Cynodon dactylon); test: Test C preemergence; settings: for Plant response rating, Bermudagrass: scale 0 to 100, 0 no effect, 100 complete control; for Plant response rating (0 to 100 where 0 is no effect and 100 is complete control), Bermudagrass: preemergence, visual evaluation after 12 to 14 days
How it was run: as §2

Nightshade = test: Test C preemergence; settings: scale 0 to 100, 0 no effect, 100 complete control
kochia (Kochia scoparia) = test: Test C preemergence; settings: for Plant response rating, Kochia: scale 0 to 100, 0 no effect, 100 complete control; for Plant response rating (0 to 100), Kochia: preemergence, visual evaluation after 12 to 14 days
How it was run: as §2

[7] = tested on: yellow nutsedge (Cyperus esculentus); test: Test C preemergence; settings: for Plant response rating, Nutsedge: scale 0 to 100, 0 no effect, 100 complete control
How it was run: as §2

[8] = tested on: crabgrass (Digitaria sanguinalis); test: Test C preemergence; settings: for Plant response rating, Crabgrass: scale 0 to 100, 0 no effect, 100 complete control; for Plant response rating (0 to 100), Crabgrass: preemergence, visual evaluation after 12 to 14 days
How it was run: as §2

[9] = tested on: woolly cupgrass (Eriochloa villosa); test: Test C preemergence; settings: for Plant response rating, Cupgrass, Woolly: scale 0 to 100, 0 no effect, 100 complete control; for Plant response rating (0 to 100), Cupgrass, Woolly: preemergence, visual evaluation after 12 to 14 days
How it was run: as §2

[10] = tested on: johnsongrass (Sorghum halepense); test: Test C preemergence; settings: for Plant response rating, Johnsongrass: scale 0 to 100, 0 no effect, 100 complete control; for Plant response rating (0 to 100), Johnsongrass: preemergence, visual evaluation after 12 to 14 days
How it was run: as §2

[11] = tested on: lambsquarters (Chenopodium album); test: Test C preemergence; settings: for Plant response rating, Lambsquarters: scale 0 to 100, 0 no effect, 100 complete control
How it was run: as §2

[12] = tested on: common ragweed (Ambrosia elatior); test: Test C preemergence; settings: for Plant response rating, Ragweed, Common: scale 0 to 100, 0 no effect, 100 complete control
How it was run: as §2

[13] = tested on: goosegrass (Eleusine indica); test: Test C preemergence; settings: for Plant response rating, Goosegrass: scale 0 to 100, 0 no effect, 100 complete control; for Plant response rating (0 to 100), Goosegrass: preemergence, visual evaluation after 12 to 14 days
How it was run: as §2

soybean (Glycine max) = test: Test C preemergence; settings: for Plant response rating, Soybean: scale 0 to 100, 0 no effect, 100 complete control
How it was run: as §2

[14] = tested on: giant foxtail (Setaria faberii); test: Test C preemergence; settings: for Plant response rating, Foxtail, Giant: scale 0 to 100, 0 no effect, 100 complete control; for Plant response rating (0 to 100), Foxtail, Giant: preemergence, visual evaluation after 12 to 14 days
How it was run: as §2

Sunflower = test: Test C preemergence; settings: Rate 125 g/ha; scale 0 to 100, 0 no effect, 100 complete control
[15] = tested on: morningglory (Ipomoea hederacea); test: Test C preemergence; settings: for Plant response rating, Morningglory: scale 0 to 100, 0 no effect, 100 complete control
How it was run: as §2

corn (Zea mays) = test: Test C preemergence; settings: for Plant response rating, Corn: scale 0 to 100, 0 no effect, 100 complete control; for Plant response rating (0 to 100), Corn: preemergence, visual evaluation after 12 to 14 days
How it was run: as §2

[16] = tested on: Surinam grass (Brachiaria decumbens); test: Test C preemergence; settings: for Plant response rating, Surinam grass: scale 0 to 100, 0 no effect, 100 complete control; for Plant response rating (0 to 100), Surinam grass: preemergence, visual evaluation after 12 to 14 days
How it was run: as §2

[17] = tested on: velvetleaf (Abutilon theophrasti); test: Test C preemergence; settings: for Plant response rating, Velvetleaf: scale 0 to 100, 0 no effect, 100 complete control
How it was run: as §2

[18] = preemergence, Rate 500 g/ha, visual evaluation after 12 to 14 days

Compound: CC(C)Oc1cccc(N2CCC(n3ccc(C(C)C)n3)C2=O)c1 (centres unmarked) [Compound 82]
- Ducksalad plant response rating ([1]; Rate 250 g/ha): 90
- Ducksalad plant response rating ([1]; Rate 500 g/ha): 100
- Plant response rating, Ducksalad ([1]; Rate 62 g/ha): 20
- Plant response rating, Ducksalad ([1]; Rate 125 g/ha): 30
- Barnyardgrass plant response rating ([2]; Rate 250 g/ha): 100
- Barnyardgrass plant response rating ([2]; Rate 500 g/ha): 100
- Plant response rating, Barnyardgrass ([2]; Rate 62 g/ha): 30
- Plant response rating, Barnyardgrass ([2]; Rate 125 g/ha): 60
- Flatsedge plant response rating ([3]; Rate 250 g/ha): 90
- Flatsedge plant response rating ([3]; Rate 500 g/ha): 100
- Plant response rating, Flatsedge ([3]; Rate 62 g/ha): 90
- Plant response rating, Flatsedge ([3]; Rate 125 g/ha): 90
- Plant response rating, Pigweed ([4]; Rate 125 g/ha): 70
- Plant response rating (0 to 100), Pigweed [4, 18]: 0
- Plant response rating, Pigweed ([4]; preemergence, Rate 250 g/ha): 100
- Plant response rating, Cocklebur ([5]; Rate 62 g/ha): 0
- Plant response rating, Cocklebur ([5]; Rate 125 g/ha): 10
- Plant response rating (0 to 100), Cocklebur ([5]; Rate 250 g/ha): 20
- Plant response rating (0 to 100), Cocklebur ([5]; Rate 500 g/ha): 40
- Plant response rating, Bermudagrass ([6]; Rate 62 g/ha): 100
- Plant response rating, Bermudagrass ([6]; Rate 125 g/ha): 90
- Plant response rating (0 to 100 where 0 is no effect and 100 is complete control), Bermudagrass ([6]; Rate 250 g/ha): 100
- Plant response rating (0 to 100 where 0 is no effect and 100 is complete control), Bermudagrass ([6]; Rate 500 g/ha): 100
- Plant response rating, Nightshade (Nightshade; Rate 62 g/ha): 0
- Plant response rating, Nightshade (Nightshade; Rate 125 g/ha): 10
- Plant response rating, Nightshade (Nightshade; Rate 250 g/ha): 30
- Plant response rating, Kochia (kochia (Kochia scoparia); Rate 62 g/ha): 0
- Plant response rating, Kochia (kochia (Kochia scoparia); Rate 125 g/ha): 90
- Plant response rating (0 to 100), Kochia (kochia (Kochia scoparia); Rate 250 g/ha): 100
- Plant response rating (0 to 100), Kochia (kochia (Kochia scoparia); Rate 500 g/ha): 100
- Plant response rating, Nutsedge ([7]; Rate 62 g/ha): 0
- Plant response rating, Nutsedge ([7]; Rate 125 g/ha): 0
- Plant response rating (0 to 100), Nutsedge [7, 18]: 40
- Plant response rating, Nutsedge ([7]; preemergence, Rate 250 g/ha): 10
- Plant response rating, Crabgrass ([8]; Rate 62 g/ha): 100
- Plant response rating, Crabgrass ([8]; Rate 125 g/ha): 100
- Plant response rating (0 to 100), Crabgrass ([8]; Rate 250 g/ha): 100
- Plant response rating (0 to 100), Crabgrass ([8]; Rate 500 g/ha): 100
- Plant response rating, Cupgrass, Woolly ([9]; Rate 62 g/ha): 70
- Plant response rating, Cupgrass, Woolly ([9]; Rate 125 g/ha): 90
- Plant response rating (0 to 100), Cupgrass, Woolly ([9]; Rate 250 g/ha): 90
- Plant response rating (0 to 100), Cupgrass, Woolly ([9]; Rate 500 g/ha): 100
- Plant response rating, Johnsongrass ([10]; Rate 62 g/ha): 40
- Plant response rating, Johnsongrass ([10]; Rate 125 g/ha): 50
- Plant response rating (0 to 100), Johnsongrass ([10]; Rate 250 g/ha): 50
- Plant response rating (0 to 100), Johnsongrass ([10]; Rate 500 g/ha): 60
- Plant response rating, Lambsquarters ([11]; Rate 62 g/ha): 100
- Plant response rating, Lambsquarters ([11]; Rate 125 g/ha): 100
- Plant response rating (0 to 100), Lambsquarters [11, 18]: 100
- Plant response rating, Lambsquarters ([11]; preemergence, Rate 250 g/ha): 100
- Plant response rating, Ragweed, Common ([12]; Rate 125 g/ha): 0
- Plant response rating (0 to 100), Ragweed, Common [12, 18]: 100
- Plant response rating, Ragweed, Common ([12]; preemergence, Rate 250 g/ha): 50
- Plant response rating, Goosegrass ([13]; Rate 62 g/ha): 90
- Plant response rating, Goosegrass ([13]; Rate 125 g/ha): 100
- Plant response rating (0 to 100), Goosegrass ([13]; Rate 250 g/ha): 100
- Plant response rating (0 to 100), Goosegrass ([13]; Rate 500 g/ha): 100
- Plant response rating, Soybean (soybean (Glycine max); Rate 125 g/ha): 10
- Plant response rating (0 to 100), Soybean (soybean (Glycine max); [18]): 60
- Plant response rating, Soybean (soybean (Glycine max); preemergence, Rate 250 g/ha): 30
- Plant response rating, Foxtail, Giant ([14]; Rate 62 g/ha): 30
- Plant response rating, Foxtail, Giant ([14]; Rate 125 g/ha): 0
- Plant response rating (0 to 100), Foxtail, Giant ([14]; Rate 250 g/ha): 100
- Plant response rating (0 to 100), Foxtail, Giant ([14]; Rate 500 g/ha): 100
- Plant response rating, Sunflower (Sunflower): 20
- Plant response rating, Morningglory ([15]; Rate 62 g/ha): 20
- Plant response rating, Morningglory ([15]; Rate 125 g/ha): 10
- Plant response rating (0 to 100), Morningglory [15, 18]: 80
- Plant response rating, Morningglory ([15]; preemergence, Rate 250 g/ha): 20
- Plant response rating, Corn (corn (Zea mays); Rate 62 g/ha): 0
- Plant response rating, Corn (corn (Zea mays); Rate 125 g/ha): 20
- Plant response rating (0 to 100), Corn (corn (Zea mays); Rate 250 g/ha): 10
- Plant response rating (0 to 100), Corn (corn (Zea mays); Rate 500 g/ha): 30
- Plant response rating, Surinam grass ([16]; Rate 62 g/ha): 10
- Plant response rating, Surinam grass ([16]; Rate 125 g/ha): 80
- Plant response rating (0 to 100), Surinam grass ([16]; Rate 250 g/ha): 70
- Plant response rating (0 to 100), Surinam grass ([16]; Rate 500 g/ha): 100
- Plant response rating, Velvetleaf ([17]; Rate 125 g/ha): 10
- Plant response rating (0 to 100), Velvetleaf [17, 18]: 30
- Plant response rating, Velvetleaf ([17]; preemergence, Rate 250 g/ha): 10
